Assay results taken from patent US8557796B2, “Substituted 1-oxa-2,8-diaza-spiro [4,5] dec-2-ene derivatives and related treatment methods” (Gruenenthal GmbH, priority 2001, dated 2013).

Molecular target: T1, NA transporter (Rattus norvegicus, UniProt Q9WTR4)
T1 construct: synaptosomes from rat brain regions were freshly isolated; from tissue; host or cells: P2 synaptosome fraction from hypothalamus of male rat brain
Assay: Noradrenalin uptake inhibition (NA-uptake) in synaptosomes
Type: biochemical
Conditions: rat hypothalamus synaptosomes
Excerpt: Tests on Noradrenalin Uptake Inhibition (NA-Uptake Inhibition)
In order to be able to carry out these in vitro studies, synaptosomes from rat brain regions were freshly isolated.

T1 sequence (Q9WTR4 1-597): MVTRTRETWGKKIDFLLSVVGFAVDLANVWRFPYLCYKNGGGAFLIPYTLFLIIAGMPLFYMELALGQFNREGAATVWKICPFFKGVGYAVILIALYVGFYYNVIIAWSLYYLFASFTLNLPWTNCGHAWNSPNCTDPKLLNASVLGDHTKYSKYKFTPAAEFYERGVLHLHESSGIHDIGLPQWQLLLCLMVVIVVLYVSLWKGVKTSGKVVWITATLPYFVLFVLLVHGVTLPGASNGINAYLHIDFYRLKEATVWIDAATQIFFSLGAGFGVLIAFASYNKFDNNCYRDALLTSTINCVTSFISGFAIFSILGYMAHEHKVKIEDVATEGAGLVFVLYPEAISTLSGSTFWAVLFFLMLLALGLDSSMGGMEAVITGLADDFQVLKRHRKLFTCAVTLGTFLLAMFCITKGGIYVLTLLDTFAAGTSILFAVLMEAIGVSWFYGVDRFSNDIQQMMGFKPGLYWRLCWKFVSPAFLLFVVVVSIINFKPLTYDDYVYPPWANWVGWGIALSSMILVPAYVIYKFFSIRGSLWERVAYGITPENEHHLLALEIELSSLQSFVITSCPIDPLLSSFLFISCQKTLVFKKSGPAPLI

Row | SMILES | inhibition at 10 µM | NA-uptake, 10 μM, % inhibition
1 | O=C(NCc1ccccc1)C1=NOC2(CCN(S(=O)(=O)c3cccs3)CC2)C1 [Example 136, 8-(thiophene-2-sulphonyl)-1-oxa-2,8-diaza-spiro[4,5]dec-2-ene-3-carboxylic acid benzylamide] | 53% | –
2 | O=C(NCc1ccccc1)C1=NOC2(CCN(C(=O)COc3cccc(Cl)c3)CC2)C1 [Example 166, 8-[2-(3-chloro-phenoxy)-acetyl]-1-oxa-2,8-diaza-spiro[4,5]dec-2-ene-3-carboxylic acid benzylamide] | 53% | –
3 | O=C(C1=NOC2(CCN(S(=O)(=O)c3ccc(OC(F)(F)F)cc3)CC2)C1)N1CCN(CCCc2ccccc2)CC1 [Example 176, [4-(3-phenyl-propyl)-piperazin-l-yl]-[8-(4-trifluoromethoxy-benzenesulphonyl)-1-oxa-2,8-diaza-spiro [4,5]dec-2-en-3-yl]-methanone] | – | 52%
4 | CC(NC(=O)C1=NOC2(CCN(S(=O)(=O)c3ccc(F)cc3)CC2)C1)C(=O)Nc1ccc2ccccc2c1 (centres unmarked) [Example 198, 8-(4-fluoro-benzenesulphonyl)-1-oxa-2,8-diaza-spiro[4,5]dec-2-ene-3-carboxylic acid [1-(naphthalen-2-ylcarbamoyl)ethyl]-amide] | 52% | –
5 | Cc1ccc(S(=O)(=O)N2CCC3(CC2)CC(C(=O)N2CCN(C(C)c4ccccc4)CC2)=NO3)cc1 (stereo not drawn) [Example 32, [4-(1-phenyl-ethyl)-piperazin-l-yl]-[8-(toluene-4-sulphonyl)-1-oxa-2,8-diaza-spiro[4,5]dec-2-en-3-yl]-methanone] | – | 43%
6 | O=C(NCc1cccs1)C1=NOC2(CCN(C(=O)CCCOc3ccccc3)CC2)C1 [Example 183] | – | 67%
7 | O=C(C1=NOC2(CCN(S(=O)(=O)c3cccc(C(F)(F)F)c3)CC2)C1)N1CCC(Cc2ccccc2)CC1 [Example 211, (4-benzyl-piperidin-l-yl)-[8-(3-trifluoromethyl-benzene-sulphonyl)-1-oxa-2,8-diaza-spiro[4,5]dec-2-en-3-yl]-methanone] | – | 49%
8 | CCOC(=O)C1CCCCN1C(=O)C1=NOC2(CCN(S(=O)(=O)c3ccc(Cl)s3)CC2)C1 (centres unmarked) [Example 155, 1-[8-(5-chloro-thiophene-2-sulphonyl)-1-oxa-2,8-diaza-spiro[4,5]dec-2-ene-3-carbonyl]-piperidine-2-carboxylic acid ethyl ester] | 41% | –
9 | O=C(NCC1CC1)C1=NOC2(CCN(C(=O)c3ccc(C(F)(F)F)c(F)c3)CC2)C1 [Example 110, 8-(3-fluoro-4-trifluoromethyl-benzoyl)-1-oxa-2,8-diaza-spiro[4,5]dec-2-ene-3-carboxylic acid cyclopropylmethyl-amide] | 45% | –
10 | CC(NC(=O)C1=NOC2(CCN(S(=O)(=O)c3ccc(Cl)s3)CC2)C1)c1cccc2c1OCCO2 (centres unmarked) [Example 140, 8-(5-chloro-thiophene-2-sulphonyl)-1-oxa-2,8-diaza-spiro[4,5]dec-2-ene-3-carboxylic acid [1-(2,3-dihydro-benzo[1,4]dioxin-5-yl)-ethyl]-amide] | 83% | –
11 | O=C(NCc1ccccc1)C1=NOC2(CCN(S(=O)(=O)c3cccc(Cl)c3)CC2)C1 [Example 210, 8-(3-chloro-benzenesulphonyl)-1-oxa-2,8-diaza-spiro[4,5]dec-2-ene-3-carboxylic acid benzylamide] | 42% | –
12 | O=C(NCc1cccs1)C1=NOC2(CCN(C(=O)c3cccc4ccccc34)CC2)C1 [Example 192, 8-(naphthalene-1-carbonyl)-1-oxa-2,8-diaza-spiro[4,5]dec-2-ene-3-carboxylic acid (thiophen-2-ylmethyl)-amide] | 41% | –
13 | O=C(C1=NOC2(CCN(S(=O)(=O)c3cc(Cl)ccc3Cl)CC2)C1)N(CCc1ccccc1)Cc1ccccc1 [Example 98, 8-(2,5-dichloro-benzenesulphonyl)-1-oxa-2,8-diaza-spiro[4,5]dec-2-ene-3-carboxylic acid benzyl-phenethyl-amide] | 82% | –
14 | CN(CCCNC(=O)C1=NOC2(CCN(S(=O)(=O)c3ccc(Cl)s3)CC2)C1)c1ccccc1 [Example 89] | – | 68%
